In brackets after ≈: the same amount, converted by molar mass. Where two headings read alike, the source gives them in different places.
Columns and labels:
Format in all cases: physicochemical
[1] = Water/octanol partition coefficient (ProfilerLDA isocratic chromatography); conditions: octanol/water (octanol-coated column), pH 7.4; read-out: log D (water/octanol partition coefficient)
Experimental: The water/octanol partition coefficient was determined with a ProfilerLDA isocratic chromatography system, using an octanol-coated column with octanol-saturated mobile phases.

[2] = Solubility of C1100 Form I in pharmaceutically-acceptable solvents at 20° C. (HPLC of saturated solutions); conditions: organic solvent or mixture, thermodynamic from solid, Form I polymorph, 4 hours equilibration
Experimental: In each case, about 25 mg of drug substance was allowed to equilibrate with 250 μL of solvent over 4 hours. The resulting saturated solutions were filtered and analysed by HPLC.

[3] = Solubility in water and corn oil
[4] = Gravimetric vapour sorption analysis; conditions: Form I
Description: Form I was subjected to gravimetric vapour sorption analysis, ramping profile from 0 to 90% RH at 10% RH increments.

chromatographic logD [1]: 3.99 ± 0.01
solubility at 4 h ([2]; solvent 1,4-dioxane): 28400 µg/mL (≈ 84.2 mM)
solubility at 4 h ([2]; solvent 1-butanol): 350 µg/mL (≈ 1.04 mM)
solubility at 4 h ([2]; solvent 1-propanol): 790 µg/mL (≈ 2.34 mM)
solubility at 4 h ([2]; solvent 2-butanol): 850 µg/mL (≈ 2.52 mM)
solubility at 4 h ([2]; solvent 2-propanol): 470 µg/mL (≈ 1.39 mM)
solubility at 4 h ([2]; solvent Acetone): 27500 µg/mL (≈ 81.6 mM)
solubility at 4 h ([2]; solvent Acetonitrile): 5440 µg/mL (≈ 16.1 mM)
solubility at 4 h ([2]; solvent Butan-2-one): 3120 µg/mL (≈ 9.25 mM)
solubility at 4 h ([2]; solvent Chloroform): > 50000 µg/mL
solubility at 4 h ([2]; solvent Dimethylformamide): > 33800 µg/mL
solubility at 4 h ([2]; solvent Dimethylsulfoxide): 13200 µg/mL (≈ 39.1 mM)
solubility at 4 h ([2]; solvent Ethanol): 1140 µg/mL (≈ 3.38 mM)
solubility at 4 h ([2]; solvent Ethyl acetate): 8360 µg/mL (≈ 24.8 mM)
solubility at 4 h ([2]; solvent Heptane): 10900 µg/mL (≈ 32.4 mM)
solubility at 4 h ([2]; solvent Methanol): 1060 µg/mL (≈ 3.14 mM)
solubility at 4 h ([2]; solvent Tetrahydrofuran): 25900 µg/mL (≈ 76.8 mM)
solubility at 4 h ([2]; solvent Toluene): 8500 µg/mL (≈ 25.2 mM)
solubility at 4 h ([2]; solvent tert-butyl methyl ether (TBME)): 11700 µg/mL (≈ 34.6 mM)
solubility ([3]; oil or lipid, corn oil, very slightly soluble, read-out: Solubility in corn oil): 600 µg/mL (≈ 1.78 mM)
solubility ([3]; water, practically insoluble, read-out: Solubility in water): < 1 µg/mL
Moisture absorbed ([4]; 0 to 90% RH at 10% RH increments, up to 90% RH, reversed under dry-air conditions): no more than 0.25 % by weight
Hygroscopicity ([4]; based on vapour sorption results): not hygroscopic
SMILES: CCS(=O)(=O)c1ccc2oc(-c3ccc4ccccc4c3)nc2c1 [C1100, 5-(ethylsulfonyl)-2-(naphthalen-2-yl)benzo[d]oxazole]
